Laboratory results: paper PMC1084349 (BMC Neuroscience, 2005)
Where a name gives a salt, the structure may show the parent alone. Read-outs that look alike come from different tables or passages of the source.

Key:
[1] = test system: sweet taste; design: method as in PMID 11917125, PMID 7812727, PMID 12379598, PMID 10480680; details: humans; cited from earlier work
[2] = test system: rTas1r2 and rTas1r3 mutants m1 – m7 other than m6; experiment: Calcium mobilization (FLIPR), other rTas1r3 mutants (m1-m5, m7); format: cell-based, rat; details: stimulation with 1 mM stevioside; 1.0 mM lactisole
Source text: Receptor mutants were generated by site directed mutagenesis according to the QuikChange protocol (Stratagene). The forward and reverse complement primers contained the desired mutations and annealed to the same sequence on opposite strands of the plasmids. The following rTas1r3 receptor variants were generated: m1: S576L; m2: R632Q, S635P, S637Q; m3: M644L A645S; m4: A702T; m5: Q717H, V718M, V723A, E725V; m6: L735F, V738A, I740A. m6/1: V738A, I740A, m6/2: L735F, I740A, m6/3: L735F, V738A. m7: A793V, Y794L, Q795R. Subsequently a rTas1r3-V738A variant was generated. All constructs were checked by sequencing.
The cDNAs were transiently transfected into HEK293T cells stably expressing the chimeric G-protein subunit Gα16gust44 [20] using Lipofectamine 2000 (Invitrogen) according to the manufacturer's protocol. 3–4 hours after transfection, DMEM was replaced by low-glucose DMEM supplemented with GlutaMAX and 10% dialyzed FBS (Invitrogen). 22–44 hours later, cells were loaded for 1 hour with the calcium sensitive dye Fluo4-AM (2 μg/ml in DMEM, Molecular Probes). […] Calcium mobilization was monitored by an automated fluorometric imaging plate reader (FLIPR, Molecular Devices). […] The obtained calcium signals were corrected for the response of mock transfected cells and normalized to the fluorescence of cells prior to the stimulus using ΔF/F=(F-F0)/F0. […]

[3] = test system: sweet taste; design: method as in PMID 11917125, PMID 7812727, PMID 12379598, PMID 10480680; details: rats; cited from earlier work
[4] = test system: hTAS1R2 and tas1r3-hN-rTM; experiment: Calcium mobilization (FLIPR), chimera with human N-terminus and rat transmembrane region; format: cell-based
Source text: The receptor chimeras of Tas1r3 were constructed using recombinant PCR. In the first reactions the N-terminal and the C-terminal part containing the seven transmembrane domains of hTAS1R3 and rTas1r3 were amplified from plasmid DNA using Ultra Pfu Polymerase (Stratagene). For the hTAS1R3 and rTas1r3 N-termini the forward vector-anchored primer (CMV: […]) and a reverse gene specific primer ([…]) were used. The hTAS1R3 and rTas1r3 C-terminal part were amplified with forward gene specific primer ([…]) and a reverse vector-anchored primer ([…]). PCR conditions were: 5 min, 94°C, 24 cycles 1 min 94°C, 0.5 min 64°C, 2 min 72°C; 5 min 72°C. The amplicons were purified using the Highpure PCR Product Purification Kit (Roche) and used as template for the second PCR. To create the chimeric receptor tas1r3-hN-rTM, equimolar amounts (~50 ng) of the hTAS1R3 N-terminus and rTas1r3 transmembrane domains were combined without additional oligonucleotides. PCR conditions were: 5 min 94°C; 15 cycles of 2 min 64°C, 2 min 72°C and 0.5 min 94°C; followed by 5 min 64°C and 10 min 72°C. […] These chimeras were cloned into pcDNA5/FRT.
The cDNAs were transiently transfected into HEK293T cells stably expressing the chimeric G-protein subunit Gα16gust44 [20] using Lipofectamine 2000 (Invitrogen) according to the manufacturer's protocol. 3–4 hours after transfection, DMEM was replaced by low-glucose DMEM supplemented with GlutaMAX and 10% dialyzed FBS (Invitrogen). 22–44 hours later, cells were loaded for 1 hour with the calcium sensitive dye Fluo4-AM (2 μg/ml in DMEM, Molecular Probes). Cells were washed 3x in solution C1 (130 mM NaCl, 5 mM KCl, 10 mM Hepes, 2 mM CaCl2, and 5 mM Glucose, pH 7,4). Calcium mobilization was monitored by an automated fluorometric imaging plate reader (FLIPR, Molecular Devices). Ligands (Sigma-Aldrich, Merck) were dissolved in C1 solution. All data were collected from at least two independent experiments carried out in triplicate. The obtained calcium signals were corrected for the response of mock transfected cells and normalized to the fluorescence of cells prior to the stimulus using ΔF/F=(F-F0)/F0. […]
All sweeteners were used at concentrations which were close to the maximal obtainable signal. (c) Alignment of amino acid sequences of the human, rat, and mouse Tas1r3 transmembrane regions. Color code: white, identical; grey, conservative; dark-grey, similar; black, non-similar. TM, predicted transmembrane domain, indicated by a black bar. Dots indicate the location of the primer used to generate the chimeric rat-human Tas1r3 receptors. Asterisks denote amino acid positions that are identical in rat and mouse but variable between humans and rodents and are located in the extracellular loops or the upper part of the transmembran regions. Boxes indicate the several rTas1r3 mutants m1 – m7, including the amino acid substitutions. m6/1 – m6/3 signified the reconverted amino acid of mutant m6.

[5] = target: T1, hTAS1R2-hTAS1R3 (Homo sapiens, UniProt Q7RTX0+Q8TE23); experiment: Calcium mobilization (FLIPR) in transfected HEK293T-Gα16gust44 cells, human sweet receptor; details: asp 15 mM; cyc 30 mM; neo 0.1 mM; sac 10 mM; suc 100 mM; stev 1 mM
T1 sequence (Q8TE23 20-839): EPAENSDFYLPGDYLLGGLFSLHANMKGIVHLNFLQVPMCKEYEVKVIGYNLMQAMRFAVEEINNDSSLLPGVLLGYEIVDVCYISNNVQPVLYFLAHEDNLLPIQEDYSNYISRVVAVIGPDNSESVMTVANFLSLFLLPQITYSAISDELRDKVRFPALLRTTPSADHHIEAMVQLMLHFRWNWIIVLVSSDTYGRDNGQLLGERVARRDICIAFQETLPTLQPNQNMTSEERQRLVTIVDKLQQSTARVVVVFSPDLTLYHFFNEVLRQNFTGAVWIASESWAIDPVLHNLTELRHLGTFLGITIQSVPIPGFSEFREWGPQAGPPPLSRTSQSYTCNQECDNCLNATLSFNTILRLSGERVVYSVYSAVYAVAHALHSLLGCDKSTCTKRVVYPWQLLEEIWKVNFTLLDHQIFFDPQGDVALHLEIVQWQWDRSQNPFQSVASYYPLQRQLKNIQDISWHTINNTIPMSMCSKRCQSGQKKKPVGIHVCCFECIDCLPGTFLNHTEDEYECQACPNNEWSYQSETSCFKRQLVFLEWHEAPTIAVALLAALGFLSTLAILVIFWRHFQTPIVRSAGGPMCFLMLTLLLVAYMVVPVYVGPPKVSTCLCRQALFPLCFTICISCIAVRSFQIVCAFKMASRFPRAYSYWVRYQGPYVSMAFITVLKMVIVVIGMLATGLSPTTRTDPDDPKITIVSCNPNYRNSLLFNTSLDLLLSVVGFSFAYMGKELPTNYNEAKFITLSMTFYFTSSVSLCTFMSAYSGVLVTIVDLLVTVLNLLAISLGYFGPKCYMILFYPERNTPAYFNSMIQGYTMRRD
T1 sequence (Q7RTX0 21-852): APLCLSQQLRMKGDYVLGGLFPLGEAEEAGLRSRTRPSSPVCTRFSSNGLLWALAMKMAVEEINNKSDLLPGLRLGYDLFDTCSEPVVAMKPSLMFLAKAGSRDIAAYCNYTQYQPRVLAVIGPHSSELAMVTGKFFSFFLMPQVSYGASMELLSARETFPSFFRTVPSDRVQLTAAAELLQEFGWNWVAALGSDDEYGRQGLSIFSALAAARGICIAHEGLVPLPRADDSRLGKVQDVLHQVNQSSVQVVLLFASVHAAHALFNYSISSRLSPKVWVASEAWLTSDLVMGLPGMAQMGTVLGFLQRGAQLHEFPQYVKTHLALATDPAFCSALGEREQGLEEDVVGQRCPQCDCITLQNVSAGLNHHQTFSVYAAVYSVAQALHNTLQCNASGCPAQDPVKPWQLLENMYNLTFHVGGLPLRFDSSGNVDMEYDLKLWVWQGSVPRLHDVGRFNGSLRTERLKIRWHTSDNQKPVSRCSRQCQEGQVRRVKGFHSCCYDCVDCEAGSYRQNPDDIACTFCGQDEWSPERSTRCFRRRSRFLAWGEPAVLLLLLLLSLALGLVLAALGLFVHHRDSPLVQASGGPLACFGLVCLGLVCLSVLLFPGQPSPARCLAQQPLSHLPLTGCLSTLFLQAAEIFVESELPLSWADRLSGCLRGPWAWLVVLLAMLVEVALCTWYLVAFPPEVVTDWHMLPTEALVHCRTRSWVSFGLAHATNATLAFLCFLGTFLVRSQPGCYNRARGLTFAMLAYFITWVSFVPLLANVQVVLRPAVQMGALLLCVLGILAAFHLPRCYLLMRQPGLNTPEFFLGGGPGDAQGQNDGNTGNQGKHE

[6] = test system: human TAS1R2-TAS1R3 heteromer; details: cited from earlier work

In the case of `COc1ccc(OC(C)C(=O)O)cc1` (stereo not drawn) [lactisole, 2-(4-methoxphenoxy) propanoic acid sodium salt], the “suppression of the sweet taste of various compounds” value [1] is given as “suppresses the sweet taste”, the “lactisole sensitivity conferred to the heteromer” value [2] is given as “did not” and the “suppression of the sweet taste of various compounds” value [3] is given as “not in rats”. For the same compound, the “lactisole sensitivity of agonist responses” value ([4]; 1.0 mM lactisole, all four agonists) was “lactisole insensitive”.
For `O=C1NS(=O)(=O)c2ccccc21` [saccharin], the “activation of receptor (calcium response)” value [5] was “elevated intracellular calcium levels” and the “activation of receptor (calcium response)” value ([4]; asp 15 mM, cyc 30 mM, neo 0.1 mM, sac 10 mM, suc 100 mM, stev 1 mM) was “responded”.
In the case of “brazzein: sweet protein (QDKCKKVYENYPVSKCQLANQCNYDCKLDKHARSGECFYDEKRNLQCICDYCEY; UniProt P56552 1-54, looked up)”, the activation of heteromer [6] is given as “only activate the human”.
For monellin, the activation of heteromer [6] is given as “only activate the human”.
In the case of thaumatin, the activation of heteromer [6] is listed as “only activate the human”.
